# Experimental data reported in US20230014907A1, “INHIBITORS OF APOL1 AND METHODS OF USING SAME” (Vertex Pharmaceuticals Incorporated, priority 2020, published 2023).
# Tests used:
# G1 APOL1 = biological target: T1, G1 APOL1 (Homo sapiens, UniProt O14791, I384M/S342G); experiment: Acute APOL1 Thallium Assay with Inducible Stable Clones of HEK 293 Cells; type: cell-based; details: HEK 293 inducible stable clones, G1 APOL1; read-out: Thallium Assay (IC50)
# T1 construct: expressed in transfected cells
# T1 sequence (O14791 28-398 S342G/I384M): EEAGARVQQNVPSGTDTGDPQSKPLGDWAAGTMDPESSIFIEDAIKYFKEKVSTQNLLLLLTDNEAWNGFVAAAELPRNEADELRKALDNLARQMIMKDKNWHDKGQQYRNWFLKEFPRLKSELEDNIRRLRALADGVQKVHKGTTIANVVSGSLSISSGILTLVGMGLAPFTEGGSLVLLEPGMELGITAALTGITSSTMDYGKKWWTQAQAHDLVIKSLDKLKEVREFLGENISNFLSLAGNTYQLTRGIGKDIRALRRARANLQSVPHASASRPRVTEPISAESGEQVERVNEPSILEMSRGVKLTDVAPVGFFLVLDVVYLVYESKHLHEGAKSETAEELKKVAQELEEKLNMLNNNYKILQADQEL
# Procedure, shortened: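 HEK293 T-Rex cells with a stable tetracycline-inducible G1 APOL1 construct (clone DC3.25) were induced with tetracycline at plating, 26000 cells per well, then incubated at 37° C. They were loaded with an AM-ester thallium-sensitive dye and stimulated with Tl+. The fluorescence rise measured Tl+ influx through APOL1 pores.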
# APOL1 G1 Protein = biological target: T2, APOL1 G1 Protein (Homo sapiens, UniProt O14791, I384M/S342G); experiment: Trypanosoma brucei brucei Lysis Assay Using APOL1 Recombinant Protein (AlamarBlue viability); type: cell-based; details: read-out: Trypanosomal Assay (IC50)
# T2 sequence (O14791 28-398 S342G/I384M): T1 sequence (O14791 28-398 S342G/I384M)
# Procedure, shortened: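 Lister 427 bloodstream-form trypanosomes seeded at 120,000 per well in phenol-red-free, serum-free medium and lysed with recombinant APOL1 variant protein. Viability read by AlamarBlue (resazurin) fluorescence. Percent viability relative to untreated wells, interpolated from a standard curve of seeded parasites.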
IC50 (G1 APOL1),Structure (SMILES),IC50 (APOL1 G1 Protein)
> 1000 nM,O=C(CCc1c(-c2ccc(F)cc2)[nH]c2ccc(F)cc12)NCCO [Compound 25],> 1000 nM
> 1000 nM,CN(CCN)C(=O)CCc1c(-c2ccc(F)cc2)[nH]c2ccc(F)cc12 [Compound 37],> 1000 nM
> 1000 nM,O=C(CCc1c(-c2ccc(F)cc2)[nH]c2ccc(F)cc12)N[C@H]1C[C@@H]1c1ccccc1 [Compound 23],> 1000 nM
250 to 1000 nM,O=C(CCc1c(-c2ccc(F)cc2)[nH]c2ccc(F)cc12)NCC(F)F [Compound 24],> 1000 nM
250 to 1000 nM,CC(CO)(CO)NC(=O)CCc1c(-c2ccc(F)cc2)[nH]c2ccc(F)cc12 [Compound 18],250 to 1000 nM
> 1000 nM,CC(C)(C)OC(=O)NC1CCC(NC(=O)CCc2c(-c3ccc(F)cc3)[nH]c3ccc(F)cc23)C1 (centres unmarked) [Compound 60],> 1000 nM
250 to 1000 nM,COCC(C)NC(=O)CCc1c(-c2ccc(F)cc2)[nH]c2ccc(F)cc12 (racemic) [Compound 30],250 to 1000 nM
250 to 1000 nM,O=C(CCc1c(-c2ccc(F)cc2)[nH]c2ccc(F)cc12)N[C@H]1CC[C@H]1O [Compound 14],250 to 1000 nM
> 1000 nM,O=C(CCc1c(-c2ccc(F)cc2)[nH]c2ccc(F)cc12)N1CCCC(O)C1 (centres unmarked) [Compound 81],> 1000 nM
> 1000 nM,NC(=O)C(CO)NC(=O)CCc1c(-c2ccc(F)cc2)[nH]c2ccc(F)cc12 (centres unmarked) [Compound 36],> 1000 nM
250 to 1000 nM,CC(C)(NC(=O)CCc1c(-c2ccc(F)cc2)[nH]c2ccc(F)cc12)C(N)=O [Compound 17],250 to 1000 nM
250 to 1000 nM,O=C(CCc1c(-c2ccc(F)cc2)[nH]c2c(F)cc(F)cc12)NC1CCC1(F)F (centres unmarked) [Compound 124],> 1000 nM
> 1000 nM,CC(C#N)(CO)NC(=O)CCc1c(-c2ccc(F)cc2)[nH]c2ccc(F)cc12 (racemic) [Compound 33],> 1000 nM
250 to 1000 nM,"CC(=O)NCCCc1c(-c2ccc(F)cc2)[nH]c2c(Cl)cccc12 [Compound 508, N-[3-[7-chloro-2-(4-fluorophenyl)-1H-indol-3-yl]propyl]acetamide]",250 to 1000 nM
> 1000 nM,O=C(CCc1c(-c2ccc(F)cc2)[nH]c2ccccc12)NC1CC1 [Compound 238],> 1000 nM
250 to 1000 nM,O=C(CCc1c(-c2ccc(F)cc2)[nH]c2ccc(F)cc12)NC1CC1(F)F (centres unmarked) [Compound 45],> 1000 nM
250 to 1000 nM,C[C@@H](O)[C@H](CO)NC(=O)CCc1c(-c2ccc(F)cc2)[nH]c2ccc(F)cc12 [Compound 38],250 to 1000 nM
250 to 1000 nM,CC(NC(=O)CCc1c(-c2ccc(F)cc2)[nH]c2ccc(F)cc12)C(N)=O (racemic) [Compound 13],> 1000 nM
> 1000 nM,O=C(CCc1c(-c2ccc(F)cc2)[nH]c2ccc(F)cc12)NC1(c2ccccc2)CC1 [Compound 65],> 1000 nM

# Continued, compound first:
Structure (SMILES),IC50 (G1 APOL1),IC50 (APOL1 G1 Protein)
"Cc1nc(NC(=O)CCc2c(-c3ccc(F)cc3)[nH]c3c(F)cc(F)cc23)no1 [Compound 92, 3-[5,7-difluoro-2-(4-fluorophenyl)-1H-indol-3-yl]-N-(5-methyl-1,2,4-oxadiazol-3-yl)propanamide]",> 1000 nM,> 1000 nM
CC(NC(=O)CCc1c(-c2ccc(F)cc2)[nH]c2c(F)cc(F)cc12)C(F)(F)F (racemic) [Compound 115],250 to 1000 nM,250 to 1000 nM
Cc1cnc(NC(=O)CCc2c(-c3ccc(F)cc3)[nH]c3c(F)cc(F)cc23)o1 [Compound 172],> 1000 nM,> 1000 nM
O=C(CCc1c(-c2ccc(F)cc2)[nH]c2c(F)cc(F)cc12)NCc1cnn(CC(F)(F)F)c1 [Compound 186],> 1000 nM,> 1000 nM
"CC(=O)NCCSc1c(-c2ccc(F)cc2)[nH]c2c(F)cc(F)cc12 [Compound 509, N-[2-[[5,7-difluoro-2-(4-fluorophenyl)-1H-indol-3-yl]sulfanyl]ethyl]acetamide]",< 250 nM,< 250 nM
"NCCCc1c(-c2ccc(F)cc2)[nH]c2c(F)cc(F)cc12 [Compound 504, 3-[5,7-difluoro-2-(4-fluorophenyl)-1H-indol-3-yl]propan-1-amine]",250 to 1000 nM,< 250 nM
O=C(CCc1c(-c2ccc(F)cc2)[nH]c2c(F)cc(F)cc12)NCCC(=O)N1CC(O)C1 [Compound 191],> 1000 nM,> 1000 nM
O=C(CCc1c(-c2ccc(F)cc2)[nH]c2c(F)cc(F)cc12)NC1(CO)CC(F)(F)C1 [Compound 122],250 to 1000 nM,> 1000 nM
CN(CC(F)(F)F)C(=O)CCc1c(-c2ccc(F)cc2)[nH]c2c(F)cc(F)cc12 [Compound 166],> 1000 nM,> 1000 nM
CC(C)C[C@H](CO)NC(=O)CCc1c(-c2ccc(F)cc2)[nH]c2c(F)cc(F)cc12 [Compound 192],> 1000 nM,> 1000 nM
"O=C(CCc1c(-c2ccc(F)cc2)[nH]c2c(F)cc(F)cc12)NC1(CO)CCC1 [Compound 91, 3-[5,7-difluoro-2-(4-fluorophenyl)-1H-indol-3-yl]-N-[1-(hydroxymethyl)-cyclobutyl]propanamide]",< 250 nM,< 250 nM
Cn1nnnc1NC(=O)CCc1c(-c2ccc(F)cc2)[nH]c2c(F)cc(F)cc12 [Compound 165],> 1000 nM,> 1000 nM
O=C(CCc1c(-c2ccc(F)cc2)[nH]c2c(F)cc(F)cc12)NC[C@@H](O)C(F)(F)F [Compound 137],> 1000 nM,> 1000 nM
O=C(NCCCc1c(-c2ccc(F)cc2)[nH]c2ccc(F)cc12)C(F)F [Compound 506],250 to 1000 nM,250 to 1000 nM
O=C(CCc1c(-c2ccc(F)cc2)[nH]c2c(F)cc(F)cc12)Nc1ccc[nH]c1=O [Compound 175],> 1000 nM,> 1000 nM
O=C(CCc1c(-c2ccc(F)cc2)[nH]c2c(F)cc(F)cc12)NC(CO)(CO)CO [Compound 95],250 to 1000 nM,250 to 1000 nM
O=C(CCc1c(-c2ccc(F)cc2)[nH]c2c(F)cc(F)cc12)Nc1ccncc1 [Compound 119],> 1000 nM,> 1000 nM

Structure (SMILES),IC50 (G1 APOL1),IC50 (APOL1 G1 Protein)
O=C(CCc1c(-c2ccc(F)cc2)[nH]c2c(F)cc(F)cc12)NC1C(=O)Nc2ccc(F)cc21 (centres unmarked) [Compound 139],> 1000 nM,> 1000 nM
Cn1ccc(NC(=O)CCc2c(-c3ccc(F)cc3)[nH]c3c(F)cc(F)cc23)n1 [Compound 163],> 1000 nM,> 1000 nM
O=C(CCc1c(-c2ccc(F)cc2)[nH]c2c(F)cc(F)cc12)Nc1ccno1 [Compound 184],> 1000 nM,> 1000 nM
O=C(CCc1c(-c2ccc(F)cc2)[nH]c2c(F)cc(F)cc12)N1CC[C@@H]1CO [Compound 112],> 1000 nM,250 to 1000 nM
CC1(NC(=O)OC(C)(C)C)CCN(C(=O)CCc2c(-c3ccc(F)cc3)[nH]c3ccc(F)cc23)C1 (centres unmarked) [Compound 27],> 1000 nM,> 1000 nM
"C[C@H](CO)NC(=O)CCc1c(-c2ccc(F)cc2)[nH]c2c(F)cc(Br)cc12 [Compound 227, 3-[5-bromo-7-fluoro-2-(4-fluorophenyl)-1H-indol-3-yl]-N-[(1R)-2-hydroxy-1-methyl-ethyl]propanamide]",< 250 nM,< 250 nM
O=C(CCc1c(-c2ccc(F)cc2)[nH]c2c(F)cc(F)cc12)NCc1ncc[nH]1 [Compound 134],> 1000 nM,> 1000 nM
Cc1cnc(NC(=O)CCc2c(-c3ccc(F)cc3)[nH]c3c(F)cc(F)cc23)s1 [Compound 178],> 1000 nM,> 1000 nM
O=C(CCc1c(-c2ccc(F)cc2)[nH]c2c(F)cc(Br)cc12)N[C@H](CO)C(F)(F)F [Compound 228],> 1000 nM,> 1000 nM
O=C(CCc1c(-c2ccc(F)cc2)[nH]c2c(F)cc(F)cc12)NC(CO)c1ccccn1 (centres unmarked) [Compound 185],> 1000 nM,> 1000 nM
O=C(CCc1c(-c2ccc(F)cc2)[nH]c2c(F)cc(F)cc12)Nc1nnc(C(F)(F)F)o1 [Compound 148],> 1000 nM,> 1000 nM
O=C(CCc1c(-c2ccc(F)cc2)[nH]c2c(F)cc(F)cc12)NC1(C(F)(F)F)CCC1 [Compound 161],> 1000 nM,> 1000 nM
"CC(=O)NCCCc1c(-c2ccc(F)cc2)[nH]c2c(F)cc(F)cc12 [Compound 505, N-[3-[5,7-difluoro-2-(4-fluorophenyl)-1H-indol-3-yl]propyl]acetamide]",< 250 nM,250 to 1000 nM
CC(C)(C)OC(=O)NC1CCCN(C(=O)CCc2c(-c3ccc(F)cc3)[nH]c3ccc(F)cc23)C1 (centres unmarked) [Compound 66],> 1000 nM,> 1000 nM
"CC(=O)NCCCCc1c(-c2ccc(F)cc2)[nH]c2c(F)cc(F)cc12 [Compound 512, N-[4-[5,7-difluoro-2-(4-fluorophenyl)-1H-indol-3-yl]butyl]acetamide]",250 to 1000 nM,250 to 1000 nM
CC(CNC(=O)OC(C)(C)C)NC(=O)CCc1c(-c2ccc(F)cc2)[nH]c2ccc(F)cc12 (racemic) [Compound 59],> 1000 nM,> 1000 nM
